Assay results from ChEMBL document CHEMBL3232928, “Fragment-to-hit-to-lead discovery of a novel pyridylurea scaffold of ATP competitive dual targeting type II topoisomerase inhibiting antibacterial agents” (J Med Chem, 2013).
≈ marks a conversion by molar mass, not a printed value.

Experiments:
[1] = tested on: Escherichia coli; test: Antibacterial activity against tolC efflux pump deficient Escherichia coli W3110 assessed as growth inhibition after 18 to 24 hrs by CLSI broth microdilution method; type: functional
[2] = target: DNA gyrase subunit B (Staphylococcus aureus, UniProt P0A0K8); test: Inhibition of ATPase activity in Staphylococcus aureus GyrB tetramer in presence of Escherichia coli GyrA by ammonium molybdate/malachite green-based absorbance assay
[3] = Antibacterial activity against Streptococcus pneumoniae D39 NCTC 7466 assessed as growth inhibition after 18 to 24 hrs by CLSI broth microdilution method; type: functional
[4] = tested on: Escherichia coli; test: Antibacterial activity against wild type Escherichia coli W3110 assessed as growth inhibition after 18 to 24 hrs by CLSI broth microdilution method; type: functional
[5] = Antibacterial activity against wild type Haemophilus influenzae Rd KW20 ATCC 51907 assessed as growth inhibition after 18 to 24 hrs by CLSI broth microdilution method; type: functional
[6] = Octanol-phosphate buffer partition coefficient, log D of the compound at pH 7.4 after 1 hr by shake flask method; type: physicochemical
[7] = Inhibition of ATPase activity in Escherichia coli GyrA/GyrB by ammonium molybdate/malachite green-based absorbance assay
[8] = Inhibition of ATPase activity in Escherichia coli ParC/ParE by ammonium molybdate/malachite green-based absorbance assay
[9] = Inhibition of ATPase activity in Escherichia coli ParE by ammonium molybdate/malachite green-based absorbance assay
[10] = tested on: Staphylococcus aureus; test: Antibacterial activity against methicillin-sensitive wild type Staphylococcus aureus assessed as growth inhibition after 18 to 24 hrs by CLSI broth microdilution method; type: functional
[11] = Volume of distribution at steady state in rat plasma at 10 mg/kg, iv administered 15 mins of infusion measured for 0 to 24 hrs by LC-MS/MS analysis; type: ADME, organism-based; design: dose 10 mg/kg, route intravenous; conditions: read-out: Vdss
[12] = Solubility of the compound; type: physicochemical
[13] = tested on: Staphylococcus aureus; test: Antibacterial activity against methicillin-resistant and […] Staphylococcus aureus assessed as growth inhibition after 18 to 24 hrs by CLSI broth microdilution method; type: functional
[14] = Clearance in rat plasma at 10 mg/kg, iv administered 15 mins of infusion measured for 0 to 24 hrs by LC-MS/MS analysis; type: ADME, organism-based; design: dose 10 mg/kg, route intravenous
[15] = Unbound fraction in human at 10 uM after 16 hrs by LC-MS/MS analysis; type: ADME; conditions: plasma
[16] = tested on: Moraxella catarrhalis; test: Antibacterial activity against wild type Moraxella catarrhalis ATCC 43617 assessed as growth inhibition after 18 to 24 hrs by CLSI broth microdilution method; type: functional

Sequence of DNA gyrase subunit B (P0A0K8 whole entry): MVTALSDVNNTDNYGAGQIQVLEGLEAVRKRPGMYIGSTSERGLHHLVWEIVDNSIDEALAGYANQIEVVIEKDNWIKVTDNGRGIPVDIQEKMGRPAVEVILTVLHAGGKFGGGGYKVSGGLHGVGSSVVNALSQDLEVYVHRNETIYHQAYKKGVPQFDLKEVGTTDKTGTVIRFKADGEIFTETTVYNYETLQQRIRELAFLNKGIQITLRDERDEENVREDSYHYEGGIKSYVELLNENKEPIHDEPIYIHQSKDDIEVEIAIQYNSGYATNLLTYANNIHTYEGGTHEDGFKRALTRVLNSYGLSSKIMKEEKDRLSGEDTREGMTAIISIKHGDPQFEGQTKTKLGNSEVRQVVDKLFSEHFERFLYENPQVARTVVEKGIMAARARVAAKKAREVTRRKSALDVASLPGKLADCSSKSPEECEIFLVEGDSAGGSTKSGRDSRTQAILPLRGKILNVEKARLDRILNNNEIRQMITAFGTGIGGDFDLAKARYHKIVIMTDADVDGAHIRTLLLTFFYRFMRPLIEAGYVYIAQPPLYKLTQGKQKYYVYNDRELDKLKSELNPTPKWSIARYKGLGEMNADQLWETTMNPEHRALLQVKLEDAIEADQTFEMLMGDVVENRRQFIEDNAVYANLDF

Structure (SMILES)	MIC [1]	IC50 [2]	MIC [3]	MIC [4]	MIC [5]	logD at 1 h [6]	IC50 [7]	IC50 [8]	IC50 [9]	MIC [10]	Vd [11]	solubility [12]	MIC [13]	clearance [14]	fraction unbound at 16 h, 10 µM [15]	MIC [16]
CCNC(=O)Nc1cc(Br)c(-c2cncc(C(=O)O)c2)cn1	> 9 µg/mL	0.3 µM	4.6 µg/mL (≈ 12.6 µM)	> 9 µg/mL	> 9 µg/mL	-1	0.068 µM	4.8 µM	0.053 µM	> 9 µg/mL	–	–	–	–	–	–
CCNC(=O)Nc1cc(-c2nc(C(F)(F)F)cs2)c(-c2cncc(C#N)c2)cn1	0.33 µg/mL (≈ 0.789 µM)	< 0.01 µM	< 0.084 µg/mL	> 64 µg/mL	21 µg/mL (≈ 50.2 µM)	2.8	< 0.01 µM	1.1 µM	< 0.01 µM	0.33 µg/mL (≈ 0.789 µM)	3.4 L/kg	7 µM (≈ 2.93 µg/mL)	0.23 µg/mL (≈ 0.55 µM)	110 mL/min/kg	0.059	0.33 µg/mL (≈ 0.789 µM)
CCNC(=O)Nc1ccc(-c2cccnc2)cn1	> 48 µg/mL	2.7 µM	–	> 48 µg/mL	> 48 µg/mL	–	2 µM	80 µM	1.4 µM	> 48 µg/mL	–	–	> 64 µg/mL	–	–	> 48 µg/mL
CCNC(=O)Nc1ccc(-c2ccc(C(=O)O)cc2)cn1	16 µg/mL (≈ 56.1 µM)	0.88 µM	–	> 64 µg/mL	16 µg/mL (≈ 56.1 µM)	–	1.6 µM	28 µM	0.054 µM	> 64 µg/mL	–	–	–	–	–	4 µg/mL (≈ 14 µM)
CCNC(=O)Nc1ccc(-c2cncc(C(=O)O)c2)cn1	> 64 µg/mL	–	> 64 µg/mL	> 64 µg/mL	> 64 µg/mL	–	1.4 µM	24 µM	0.4 µM	> 64 µg/mL	–	–	–	–	–	> 64 µg/mL
CCN(CC)C(=O)Nc1ccccn1	–	38 µM	–	–	–	–	–	–	–	–	–	–	–	–	–	–
CCNC(=O)Nc1cc(Cl)c(-c2cncc(C(=O)O)c2)cn1	> 64 µg/mL	0.13 µM	4 µg/mL (≈ 12.5 µM)	> 64 µg/mL	> 64 µg/mL	-1.1	0.058 µM	4.3 µM	0.022 µM	> 64 µg/mL	–	–	–	–	–	> 64 µg/mL
CCNC(=O)Nc1ccc(-c2nc3cccc(C(=O)O)c3s2)cn1	8 µg/mL (≈ 23.4 µM)	0.1 µM	2 µg/mL (≈ 5.84 µM)	> 64 µg/mL	16 µg/mL (≈ 46.7 µM)	–	–	2.1 µM	–	> 64 µg/mL	–	–	–	–	–	8 µg/mL (≈ 23.4 µM)
CCNC(=O)Nc1ccc(-c2ncc(C(=O)O)s2)cn1	–	0.27 µM	64 µg/mL (≈ 219 µM)	> 64 µg/mL	> 64 µg/mL	–	0.24 µM	8.8 µM	0.11 µM	> 64 µg/mL	–	–	–	–	–	> 64 µg/mL
CCNC(=O)Nc1cc(-c2nc(C(F)(F)F)cs2)c(-c2cncc(-c3nc(C)no3)c2)cn1	0.74 µg/mL (≈ 1.56 µM)	0.052 µM	< 0.095 µg/mL	> 64 µg/mL	> 64 µg/mL	3.4	< 0.01 µM	1.4 µM	0.025 µM	0.37 µg/mL (≈ 0.778 µM)	11 L/kg	< 1 µM	0.19 µg/mL (≈ 0.4 µM)	100 mL/min/kg	0.063	0.74 µg/mL (≈ 1.56 µM)
O=C(Nc1ccccn1)NC1CC1	–	1000 µM	–	–	–	–	–	–	–	–	–	–	–	–	–	–
CCNC(=O)Nc1cc(-c2noc(C)n2)c(-c2cncc(C(=O)O)c2)cn1	> 64 µg/mL	–	> 64 µg/mL	> 64 µg/mL	> 64 µg/mL	-2.1	–	–	0.15 µM	> 64 µg/mL	–	–	–	–	–	–
CCOC(=O)Nc1ccccn1	–	> 1000 µM	–	–	–	–	–	–	–	–	–	–	–	–	–	–
CCNC(=O)Nc1cc(-c2ccccc2)c(-c2cncc(C(=O)O)c2)cn1	36 µg/mL (≈ 99.3 µM)	0.06 µM	4.5 µg/mL (≈ 12.4 µM)	> 64 µg/mL	> 64 µg/mL	-0.31	0.096 µM	2 µM	0.17 µM	> 64 µg/mL	–	–	–	–	–	> 64 µg/mL
CCNC(=O)Nc1ncccn1	–	80 µM	–	–	–	–	–	–	–	–	–	–	–	–	–	–
CCNC(=O)Nc1ccccn1	–	32 µM	–	–	–	–	–	–	–	–	–	–	–	–	–	–
C#CCNC(=O)Nc1ccccn1	–	350 µM	–	–	–	–	–	–	–	–	–	–	–	–	–	–
